Data from PubChem BioAssay (NCI).
Where “and” joins values, the source holds several entries; their conditions need not be identical. Identical values can stand only once.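 Protocol summary: plate cells (96-well), add compound at 5 concentrations, incubate 48 h, interpolate endpoints linearly. GI50 is the concentration that inhibits growth by half. TGI is the concentration that stops growth completely.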

Tests used:
Assay in all cases: inhibition of tumour cell growth, NCI panel, 48 h
[1] = test system: A498 renal
[2] = test system: A549 NSCLC
[3] = test system: CAKI-1 renal
[4] = test system: COLO 205 colon
[5] = test system: DU-145 prostate
[6] = test system: HCC-2998 colon
[7] = test system: HS 578T breast
[8] = test system: HT29 colon
[9] = test system: LOX IMVI melanoma
[10] = test system: MCF7 breast
[11] = test system: NCI/ADR-RES ovarian
[12] = test system: OVCAR-3 ovarian
[13] = test system: SW-620 colon
[14] = test system: M14 melanoma
[15] = test system: RPMI-8226 leukemia

Cn1c(=O)c(Cl)c(N=[N+]=[N-])c2ccccc21
TGI [1]: > 100 µM | TGI [2]: > 100 µM | TGI [3]: > 100 µM | TGI [4]: > 100 µM | TGI [5]: > 100 µM | TGI [6]: > 100 µM | TGI [7]: > 100 µM | TGI [8]: > 100 µM | TGI [9]: > 100 µM | TGI [10]: > 100 µM | TGI [11]: > 100 µM | TGI [12]: > 100 µM | TGI [13]: > 100 µM

CCN1CCC(O)(c2ccc(O)cc2)C(C(=O)c2ccc(O)cc2)C1 (centres undefined)
TGI [4]: 37.9 µM | TGI [5]: 60 µM | TGI [7]: > 100 µM | TGI [8]: 64.9 µM | TGI [9]: 27.4 µM | TGI [14]: 36.4 µM | TGI [10]: 10.9 µM | TGI [11]: 71 µM | TGI [12]: 32.8 µM | TGI [15]: 33.4 µM | TGI [13]: 12.3 µM

O=c1oc2ccc([N+](=O)[O-])cc2cc1Br
TGI [1]: > 100 µM | TGI [2]: > 100 µM | TGI [3]: > 100 µM | TGI [4]: > 100 µM | TGI [5]: > 100 µM | TGI [6]: > 100 µM | TGI [7]: > 100 µM | TGI [8]: > 100 µM | TGI [9]: > 100 µM | TGI [14]: > 100 µM | TGI [10]: > 100 µM | TGI [11]: > 100 µM | TGI [12]: > 100 µM | TGI [15]: > 100 µM | TGI [13]: > 100 µM

CC1=C2C3OC(=O)C(C)C3CCC2(C)C=CC1=Nc1ccccc1 (centres undefined)
TGI [1]: > 100 µM | TGI [2]: > 100 µM | TGI [4]: > 100 µM | TGI [6]: > 100 µM | TGI [8]: > 100 µM | TGI [9]: > 100 µM | TGI [10]: > 100 µM | TGI [11]: > 100 µM | TGI [12]: > 100 µM | TGI [13]: > 100 µM

CC(=O)Nc1ccc(Sc2nnc(NC(C)=O)s2)cc1
TGI [2]: > 100 µM | TGI [4]: > 100 µM | TGI [6]: > 100 µM | TGI [7]: > 100 µM | TGI [14]: > 100 µM | TGI [10]: > 100 µM | TGI [11]: > 100 µM | TGI [15]: > 100 µM | TGI [13]: > 100 µM

CCOC(=O)C(OP(=O)(OCC)OCC)C(F)(F)F (centres undefined)
TGI [1]: > 100 µM | TGI [5]: > 100 µM | TGI [6]: > 100 µM | TGI [7]: > 100 µM | TGI [8]: > 100 µM | TGI [9]: > 100 µM | TGI [14]: > 100 µM | TGI [10]: > 100 µM | TGI [12]: > 100 µM | TGI [15]: > 100 µM

COC1C(O)C(C)OC(OC2CCC3(C)C(CCC4C3C(O)CC3(C)C(C5=CC(=O)OC5)CCC43O)C2)C1O (centres undefined)
TGI [1]: 0.703 µM | TGI [2]: 0.192 µM | TGI [3]: 0.469 µM | TGI [4]: 1.57 µM | TGI [5]: 0.173 µM | TGI [6]: 4.91 µM | TGI [7]: > 100 µM | TGI [8]: 2.23 µM | TGI [9]: 0.775 µM | TGI [14]: 1.02 µM | TGI [12]: 0.553 µM | TGI [15]: 0.793 µM | TGI [13]: 4.9 µM

C=CCCCCCCCCC(=O)O
TGI [1]: 1.06 µM | TGI [2]: 214 µM | TGI [3]: 214 µM | TGI [4]: 197 µM | TGI [6]: 202 µM | TGI [8]: 227 µM | TGI [9]: 259 µM | TGI [10]: 452 µM | TGI [11]: 558 µM | TGI [12]: 176 µM | TGI [15]: 352 µM | TGI [13]: 260 µM

COc1cc(C=O)cc(O)c1O
TGI [2]: > 100 µM | TGI [4]: > 100 µM | TGI [6]: > 100 µM | TGI [8]: > 100 µM | TGI [9]: > 100 µM | TGI [14]: > 100 µM | TGI [12]: > 100 µM | TGI [15]: > 100 µM | TGI [13]: > 100 µM

O=C1c2ccccc2C(=O)N1CC(CN1C(=O)c2ccccc2C1=O)(C(=O)OCc1ccccc1)C(=O)OCc1ccccc1
TGI [1]: > 100 µM | TGI [3]: > 100 µM | TGI [4]: > 100 µM | TGI [5]: > 100 µM | TGI [6]: > 100 µM | TGI [7]: > 100 µM | TGI [8]: > 100 µM | TGI [14]: > 100 µM | TGI [11]: > 100 µM | TGI [12]: > 100 µM | TGI [15]: > 100 µM

O=c1c([OH2+])c(-c2ccc(O)cc2[O-])oc2cc(O)cc([O-])c12.O=c1c([OH2+])c(-c2ccc(O)cc2[O-])oc2cc(O)cc([O-])c12.[Ti+4]
GI50 [1]: > 100 µM | TGI [1]: > 100 µM | TGI [2]: > 100 µM | TGI [3]: > 100 µM | TGI [4]: > 100 µM | TGI [8]: > 100 µM | TGI [9]: > 100 µM | TGI [14]: > 100 µM | TGI [12]: > 100 µM | GI50 [15]: > 100 µM | TGI [15]: > 100 µM | TGI [13]: > 100 µM

COc1cccc2c1C(=O)c1c(O)c3c(c(O)c1C2=O)C[C@@](O)(C(=O)CO)CC3OC1CC(NCCCC(OC(C)=O)OC(C)=O)C(O)C(C)O1 (some centres undefined)
TGI [1]: 0.00609 µM | GI50 [6]: 0.000324 µM | TGI [6]: 0.00593 µM and 0.00191 µM | TGI [9]: 0.000743 µM | GI50 [14]: < 0.0001 µM | GI50 [15]: < 0.0001 µM | TGI [15]: 0.000403 µM | GI50 [13]: < 0.0001 µM | TGI [13]: > 1 µM

CCOC(=O)C(=O)NC12CC3CC(CC(C3)C1)C2
TGI [1]: > 100 µM | TGI [2]: > 100 µM | TGI [3]: > 100 µM | TGI [4]: > 100 µM | TGI [6]: > 100 µM | TGI [8]: > 100 µM | TGI [9]: > 100 µM | TGI [14]: > 100 µM | TGI [15]: > 100 µM | TGI [13]: > 100 µM
